Experimental data as given in the METLIN SMRT retention time set (Domingo-Almenara et al. 2019).

Experiment: gradient 5% acetonitrile 3 min, to 50% in 2 min, to 85% in 15 min, held 3 min, 100 µL/min
Conditions: column: Zorbax Extend-C18 2.1 x 50 mm; eluents: water / acetonitrile, 0.1% formic acid
Outline: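 The system's dead and dwell volumes were 40 μL and 900 μL, with a Zorbax Extend-C18 column (2.1 × 50 mm, 1.8 μm) run at 100 μL/min in water and acetonitrile containing 0.1% formic acid each. Pure standards were analyzed in mixtures of ~100 molecules by HPLC–quadrupole time-of-flight mass spectrometry in positive and negative ionization mode. Retention time was assigned from computationally picked, manually inspected adduct peaks.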

RP-LC retention time [s]	SMILES
731	Cc1cc2[nH]c(C(=O)Nc3cccc(F)c3C)c(CN3CCOCC3)c2s1
688	N#Cc1cccc(Cn2c(-c3nc(-c4ccccc4)no3)cccc2=O)c1
762	Cc1ccc(NC(=O)C2CCN(C(=O)C3Sc4ccccc4NC3=O)CC2)c(C)c1 (stereo not given)
570	Cc1cc(N2CCN(C)CC2)n2nc(CN3CCN(c4cccc(C)c4C)CC3)nc2n1
730	COCCCNC(=O)N1CCCN(C2=NS(=O)(=O)C(c3ccc(C)cc3)=C2C)CC1
855	COc1ccc(-c2cc(=O)n3c4ccccc4n(CC(=O)NCc4ccco4)c3n2)cc1
720	CCCn1cc(CCNS(=O)(=O)CCC)c2cccnc21
558	O=C(c1ccn[nH]1)N1CCC[C@H]1c1nc(C2CCOCC2)n[nH]1
656	Cn1nccc1C(=O)N1CCN(c2nc3c(S(C)(=O)=O)cccc3s2)CC1
1110	COc1cccc(-c2nc(C3CCN(S(=O)(=O)c4cccc(F)c4)CC3)no2)c1
907	Cc1cc(C)n(-c2nc(C)c(C)c(=O)n2CC(=O)N2CCCc3ccccc32)n1
844	O=C(Nc1cnc(N2CCCCCC2)nc1)C1CCCC1
1180	CNC(=O)c1c(NC(=O)c2ccc(Cl)cc2)sc2c1CCC2
1170	CSc1ccc(-c2noc(CN3C(=O)COc4cc(Cl)ccc43)n2)cc1
648	COC(=O)C1=C(N)C(=O)N(CCc2ccc(OC)c(OC)c2)C1
692	CN1C(=O)Cc2cc(C(=O)NC3CCCCC3)ccc21
878	CCOC(=O)c1cn(Cc2cccc(F)c2)c2nc(C)ccc2c1=O
613	O=C(c1csc(-c2ccc(N3CCCC3)nc2)n1)N1CCCCC1
868	O=C(NC1CCCC1)N1CCC(c2noc(-c3ccccc3)n2)C1 (stereo not given)
597	CCN1CCc2ncnc(SCC(=O)Nc3ccc(Cl)cc3C(F)(F)F)c2C1
597	Cc1nc(C)c(C(=O)NC2CCc3nn(CC4CC4)c(=O)n3CC2)s1 (stereo not given)
900	COc1ccc(-c2nc3cnc(Br)cn3c2Nc2ccc3c(c2)OCCO3)cc1
1180	Cc1ccc(-c2nc(-c3ccc4oc(C)nc4c3)no2)cc1

RP-LC retention time [s]	SMILES
589	COCCN1CN=C(Nc2nc(C)c3ccccc3n2)NC1
1220	O=C(Cc1cccs1)N1CCc2c([nH]c3ccccc23)C1c1ccc(Cl)cc1 (stereo not given)
711	O=C(Cc1cccs1)N1CCC[C@H]1c1nc(-c2ccccc2)n[nH]1
618	COCCc1nncn1C1CCN(C(=O)c2cc(F)ccc2F)CC1
720	CCC(=O)N1c2ccc(S(=O)(=O)N3CCCCC3)cc2CC1C(=O)NCCc1ccccc1 (stereo not given)
685	CC1CCCN(CC2CCN(S(=O)(=O)Cc3c(F)cccc3Cl)CC2)C1 (stereo not given)
1160	COc1cc(OC)cc(-c2nc(-c3cccc(-c4ccnn4C)c3)no2)c1
1110	CC(C)c1ccc(NC(=O)C2CCN(S(C)(=O)=O)c3cc(Cl)ccc3O2)cc1 (stereo not given)
807	O=C(NC1CCN(c2cc(-c3ccc(F)cc3)[nH]n2)C1)c1ccc(F)c(F)c1 (stereo not given)
653	CCn1ccc2cc(S(=O)(=O)N3CCC(C(=O)NCc4cccnc4)CC3)ccc21
735	CCOC(=O)C1CCC(CNC(=O)N2CCN(Cc3nc4cc(C)ccc4o3)CC2)CC1 (stereo not given)
737	CCc1cccc2cc([C@@H](O)CNC(C)(C)C)oc12
1050	Cc1nn(-c2ccccc2)c(C)c1S(=O)(=O)N1CCC(C(=O)Nc2ccc(F)c(Cl)c2)CC1
1250	CC(C)c1ccc(S(=O)(=O)N2CCCC2c2nc(-c3ccccc3)no2)cc1 (stereo not given)
770	CC(C)(C)n1nnnc1C1CC2(CCOCC2)C(=O)N1CCc1c[nH]c2ccccc12 (stereo not given)
796	CCn1nc(CNC(=O)c2ccccn2)c2ccccc21
794	CN1C2CCC1CC(OC(=O)C(O)c1ccccc1)C2 (stereo not given)
1120	Cc1nc(-c2cc(S(=O)(=O)Nc3ccccc3Cl)c(C)s2)sc1C
868	Cc1cc(C2CCCN2C(=O)c2cc(-c3ccccc3)no2)no1 (stereo not given)
856	CN(C(=O)CN1C(=O)C(O)(c2cccc(F)c2)c2ccccc21)c1ccccc1 (stereo not given)
880	CCn1ccc2c(cc(C(=O)Nc3cccc(C(F)(F)F)c3)n2C)c1=O
537	Cc1nnc(NC(=O)CN2CC(c3nc(C4CC4)no3)C2)s1
700	Cc1ccc2c(c1)N(CCCC(=O)N1CCN(c3cc(=O)n(C)c(=O)n3C)CC1)C(=O)CO2

RP-LC retention time [s]	SMILES
970	COc1cc(OC)c(NC(=O)c2cc3c(n(-c4ccc(F)cc4)c2=O)CCCC3=O)cc1Cl
546	CCN(CC)c1ccc(CNC(=O)C2CCc3nc(N4CCCCC4)ncc3C2)cc1 (stereo not given)
936	CCOC(=O)c1c(S(=O)(=O)N2CCC(C(=O)Nc3cc(C)ccc3OC)CC2)c(C)n(C)c1C
754	O=C(Cc1csc(NC(=O)NC2CCCC2)n1)NCCc1c[nH]c2ccccc12
656	O=C(Nc1ccnc2ccc(Cl)cc12)c1ccc(S(=O)(=O)NC2CC2)cc1
844	O=C(C1CCCO1)N1CCC(CCOc2ccccc2)CC1 (stereo not given)
649	CCCN(CCC)CCNC(=O)C1CCC(=O)N(c2ccc(OC)cc2)C1c1ccc(F)cc1 (stereo not given)
920	COc1cc2c(cc1C(=O)NCc1ccc3c(c1)CCCO3)OCCCO2
908	Cc1ccc2c(c1)N(C(=O)Cn1ccn3nc(-c4ccccc4)c(CO)c3c1=O)CCO2
721	Cc1ccc(-c2nc3c(C)cccn3c2Nc2ccc3c(c2)OCCO3)cc1
1090	CCOc1ccccc1-c1nc(C2CC(=O)N(c3ccc(C)cc3)C2)no1 (stereo not given)
644	CC(C(=O)N1CCN(Cc2ccccc2)CC1)N1C(=O)CCCc2ccccc21 (stereo not given)
1090	Cc1ccc(NC(=O)Cn2c(C)nc3c(sc4nc(-c5ccccc5)ccc43)c2=O)c(C)c1
570	CCNC(=O)N1CCC(OC2CCN(Cc3ccccc3)CC2)CC1
523	Cc1c(C(=O)N2CCN(C)CC2)sc2ncnc(N3CCN(c4ccccn4)CC3)c12
669	Cc1cc(C)cc(NC(=O)Cc2nc(-c3ccccn3)n[nH]2)c1
711	Cc1ccc(-c2nc3cnccn3c2Nc2cccc(C(=O)O)c2)cc1
1110	Cc1ccc(NC(=O)c2cc(C3CC3)n3nccc3n2)c(C)c1
866	O=C(c1csc(-c2cnccn2)n1)N1CCN(c2ccccc2Cl)CC1
960	CCc1ccccc1N1C(=O)CN(S(=O)(=O)c2ccccc2)CC1(C)C(=O)NC1CCCC1 (stereo not given)
1080	Cc1ccc(-c2noc(C3CCCN3C(=O)C3CCN(S(=O)(=O)c4ccc(C)cc4)CC3)n2)cc1 (stereo not given)
964	Cc1cc(NC(=O)CN2CCc3ccccc3C2C(=O)N2CCCCC2)ccc1F (stereo not given)
699	CCOC(=O)c1[nH]c2ccccc2c1NC(=O)c1ccc(N2C(=O)CCC2=O)cc1

RP-LC retention time [s]	SMILES
1250	Cc1ccc(F)c(NC(=O)c2cc(C(C)C)n3nccc3n2)c1
962	O=C(c1ccco1)N1CCCC(c2ccnc(-c3ccccc3)n2)C1 (stereo not given)
528	O=C(NCc1cccs1)C1CCN(c2nnc3ccccn23)CC1
684	O=C1[C@H]2CN(Cc3cc(Cl)ccc3F)C[C@H]2C(=O)N1CCN1CCc2ccccc2C1
578	CCC(=O)N1CCN(c2nc3c(s2)CC(C(=O)O)CC3)CC1 (stereo not given)
1140	Cc1nc2c(sc3nc(-c4ccccc4)ccc32)c(=O)n1CC(=O)Nc1ccc(F)c(Cl)c1
817	Cc1nc(N2CCOCC2)c2c(C(=O)Nc3cccc(F)c3)c(C)oc2n1
772	CCn1cc(C)c(C(=O)O)c1CC(=O)NCc1ccc(C)cc1
917	COC(=O)C1=C(C)NC2=C(C(=O)c3ccccc32)C1c1cccc(OC)c1 (stereo not given)
1070	Cn1cc(C(=O)C(=O)NC2CCCCC2)c2ccccc21
733	O=C(Cc1nnc(-c2ccc3ncccc3c2)o1)NCCc1ccc(Cl)cc1
831	CCc1nc(-c2csc(S(=O)(=O)N3CCCC(C(=O)Nc4ccc(C)cn4)C3)c2)no1 (stereo not given)
671	O=C(Cn1nc2c(c1NC(=O)c1c(F)cccc1Cl)CSC2)NCC1CCCO1 (stereo not given)
1010	CCc1cc2c(cc(C(=O)NCc3cccs3)n2C)s1
799	CN(C)c1cccc(C(=O)N2CCN(C(=O)c3nnn4c3COC(c3ccccc3)C4)CC2)c1 (stereo not given)
630	Cc1ccccc1OCC(=O)N1CCN(c2cc(C)n3c(C)nnc3n2)CC1
1040	COc1ccc(NC(=O)c2cc(C)n3nc(C)cc3n2)c(C)c1
740	COc1ccc(-c2cn3cccnc3n2)cc1NC(=O)c1cccc(Cl)c1
841	CCN1c2cc(Cl)ccc2C(=O)NC12CCN(C(=O)Nc1ccc(OC)cc1C)CC2
784	O=C(NCCc1ccco1)c1c(-c2ccccc2)nnc2ccccc12

SMILES	RP-LC retention time [s]
CCCN1CCC[C@H](c2cccc(O)c2)C1	588
